Structures can show the parent of a compound that is named as a salt. Where two headings read alike, the source gives them in different places.
What was measured:
interferon = assay: Interferon-inducing activity in mice (titers in blood); assay type: in vivo, BALB mice; conditions: for Interferon titer: dose (mg/kg): cycloferone 200, thylorone 50, prototype 400-600
Experimental: At predetermined time intervals interferon titers were measured in the blood by conventional techniques on homologous cells […] grown in 96-well plates in a CO2 -containing incubator. The test-virus was the encephalomyocarditis virus.

[1] = test system: ristal-strain mongrel white mice; assay: in vivo
Experimental: (§1) Intravenous and intramuscular injections were given of 2000 mg/kg and less in two stages. The follow-up period was 14 days. The lethal dose (LD50) was calculated by the Kerber technique. […] 31, 1987.

in vivo = conditions: mouse, in vivo
Experimental: as §1

[2] = test system: human immunodeficiency virus (HIV); conditions: 0.08 mg/ml
Experimental: The cells were grown at the Russian Medical University (RMU) in tube medium--1640 containing 20% calf foetal serum at end concentration of 0.5-0.7×10^6 cells/ml. […] The cells were then incubated for 3-4 days at 37° C. with subsequent replacement of nutrient medium. On the fifth and seventh day after infection, the presence of virus-specific antigen was established through indirect immunofluorescence assay using anti-HIV antibodies.

C trachomatis = conditions: 100 mg/kg daily for 5 days
Experimental: Experiments were performed involving C trachomatis infection of non-line whim mice weighing 16-18 grams. […] Alternatively, a single tetracycline hydrochloride injection (100 mg/kg) was administered on conventional schedule for 5 days.
Therapeutic effectiveness was evaluated by cytoscopic examination of stained smears from lymph nodes and the lung for pathogenic multiplication.

B-lymphocytes = assay: Interferon induction in cell culture, B-lymphocytes; assay type: cell-based, BALB mice
Description: (§2) The initial concentration was 5×10^6 cells/milliliter. The dynamics of interferon accumulation were studied in the cultural fluid of the lymphocytes grown on plastic plates in the presence of CO2.

Splenocytes = assay: Interferon induction in cell culture, splenocytes; assay type: cell-based, BALB mice
Description: as §2

T-lymphocytes = assay: Interferon induction in cell culture, T-lymphocytes; assay type: cell-based, BALB mice
Description: as §2

[3] = test system: Peripheral-blood lymphocytes; assay: Interferon induction in cell culture, peripheral-blood lymphocytes; assay type: cell-based, BALB mice
Description: as §2

hepatocytes (liver) = assay: Anti-promotive activity: hepatocytic cohesion; assay type: in vivo, BALB/c mice
Experimental: Studies were performed on female BALB/c mice weighing 25.0 grams.
The compounds were administered daily for 6 days in optimal doses. Controls were given physiological solution. Six hours after the last injection the animals were sacrificed. Sections of the lung and liver were cut out, submerged in 199 medium, and cellular cohesion was measured. Measurements were performed with a micro-manipulator by modified Kuman technique. See Modianova E. A., Voprosy onkologii, 19(6): 83-88 (1973).
For each experimental point, cellular cohesion was measured in 4-5 mice. One tissue segment from each of the mice measuring 10-30 cells was examined.

**Q.** For `CN(C)CCOC(=O)Cn1c2ccccc2c(=O)c2ccccc21` [10-carboxymethyl-9-acridone dimethyl-aminoethylether chlorhydrate], which Interferon titer (interferon; 2 hours) is on record?
**A.** The Interferon titer was 100 IU/ml.

**Q.** What about the Interferon titer (interferon; 4 hours) of the same compound?
**A.** The Interferon titer was 1000 IU/ml.

**Q.** And the “interferonogenic activity compared to the compound of the present invention” value (interferon; words, vs cycloferone)?
**A.** The value was “lower interferonogenic activity”.

**Q.** What about the “toxicity upon parenteral application” value ([1]; parenteral) of the same compound?
**A.** Its value is “low-toxicity”.

**Q.** What about the “level of toxicity compared to the compound of the present invention” value ([1]; words, vs cycloferone) of the same compound?
**A.** The value was “same level of toxicity”.

**Q.** What about the LD50 at 336 h (in vivo; im) of the same compound?
**A.** Its LD50 at 336 h is 600 mg/kg.

**Q.** What about the LD50 at 336 h (in vivo; iv) of the same compound?
**A.** The LD50 at 336 h was 400 mg/kg.

**Q.** With `Cc1cn([C@H]2C[C@H](N=[N+]=[N-])[C@@H](CO)O2)c(=O)[nH]c1=O` [Azidothymidine, azidothymidine] as the compound, how does the “Number of cells containing HIV antigen by IIFR” value ([2]; Day 5) read?
**A.** The value was 6.5%.

**Q.** What about the “Number of cells containing HIV antigen by IIFR” value ([2]; Day 7) of the same compound?
**A.** The value was 4.7%.

**Q.** What does the source list for `CN(C)C1C(=O)C(C(N)=O)=C(O)C2(O)C(=O)C3=C(O)c4c(O)cccc4C(C)(O)C3CC12` (stereo not shown) [Tetracycline hydrochloride, tetracycline hydrochloride]?
**A.** Effectiveness Index (C trachomatis; lung, 3 days): 1.8; Effectiveness Index (C trachomatis; lung, 7 days): 1.0; Effectiveness Index (C trachomatis; lymph nodes, 3 days): 0.9; Effectiveness Index (C trachomatis; lymph nodes, 7 days): 0.6

**Q.** What does the source list for `CCN(CC)CCOc1ccc2c(c1)C(=O)c1cc(OCCN(CC)CC)ccc1-2` [Thylorone]?
**A.** Interferon titer (B-lymphocytes; 24 hr): 15; Interferon titer (B-lymphocytes; 48 hr): 30; Interferon titer (B-lymphocytes; 72 hr): 320; Interferon titer (B-lymphocytes; 96 hr): < 10; Interferon titer (B-lymphocytes; 120 hr): < 10; Interferon titer (B-lymphocytes; 144 hr): 5; Interferon titer (Splenocytes; 24 hr): 15; Interferon titer (Splenocytes; 48 hr): 30; Interferon titer (Splenocytes; 72 hr): 640; Interferon titer (Splenocytes; 96 hr): 320; Interferon titer (Splenocytes; 120 hr): 15; Interferon titer (Splenocytes; 144 hr): < 5; Interferon titer (interferon; 1 hour): < 40 IU/ml; Interferon titer (interferon; 2 hours): < 40 IU/ml; Interferon titer (interferon; 4 hours): < 40 IU/ml; Interferon titer (interferon; 8 hours): 40 IU/ml; Interferon titer (interferon; 18 hours): 640 IU/ml; Interferon titer (interferon; 24 hours): 20 IU/ml; Interferon titer (interferon; 48 hours): < 10 IU/ml; Interferon titer (T-lymphocytes; 24 hr): 15; Interferon titer (T-lymphocytes; 48 hr): 60; Interferon titer (T-lymphocytes; 72 hr): 5000; Interferon titer (T-lymphocytes; 96 hr): 3600; Interferon titer (T-lymphocytes; 120 hr): 960; Interferon titer (T-lymphocytes; 144 hr): 5; Interferon titer ([3]; 24 hr): 40; Interferon titer ([3]; 48 hr): 80; Interferon titer ([3]; 72 hr): 320; Interferon titer ([3]; 96 hr): 80; Interferon titer ([3]; 120 hr): 10; Interferon titer ([3]; 144 hr): < 10; Hepatocytic Cohesion (hepatocytes (liver); Intraperitoneal, 10.0 mg/kg, P >0.05): 0.053 ± 0.008 mg/1 cell; hepatocytic cohesion indices compared to controls (hepatocytes (liver); words, vs controls): the same as in the controls

From patent US5658886A, “Acridinone derivative, compositions containing same and a method for using same to treat Chlamydia trachomatis” (Limited Liability Partnership "POLYSAN", priority 1993, dated 1997)
